Laboratory results reported in ChEMBL document CHEMBL1201862, “PubChem BioAssay data set” (2004).
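A five-concentration, 48-hour dose response in 96-well plates underlies each endpoint, interpolated linearly between surrounding concentrations. Here, GI50 denotes the concentration required for 50% inhibition of growth.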 The source made the active and inactive calls. Cut-off read from the data, not from the text of the source: active = GI50 up to about 1.1 µM and inactive = higher.

What was measured:
Assay in all cases: DTP human tumour cell line panel, 48 h
ACHN = test system: ACHN
BT-549 = test system: BT-549
COLO 205 = test system: COLO 205
DU-145 = test system: DU-145
Hs-578T = test system: Hs-578T
M14 = test system: M14
MCF7 = test system: MCF7
MDA-MB-231 = test system: MDA-MB-231
Malme-3M = test system: Malme-3M
NCI-H23 = test system: NCI-H23
NCI-H460 = test system: NCI-H460
NCI/ADR-RES = test system: NCI/ADR-RES
OVCAR-3 = test system: OVCAR-3
OVCAR-8 = test system: OVCAR-8
PC-3 = test system: PC-3
SN12C = test system: SN12C
TK-10 = test system: TK-10
UACC-257 = test system: UACC-257
UACC-62 = test system: UACC-62

Measured: GI50

CC1(C)N=C(N)N=C(N)N1c1cccc(C(=O)Nc2ccc(S(=O)(=O)F)cc2)c1
inactive: ACHN > 100 µM | BT-549 > 100 µM | COLO 205 > 100 µM | DU-145 > 100 µM | Hs-578T > 100 µM | M14 > 100 µM | MCF7 > 100 µM | MDA-MB-231 > 100 µM | Malme-3M > 100 µM | NCI-H23 > 100 µM | NCI-H460 > 100 µM | NCI/ADR-RES > 100 µM | OVCAR-3 > 100 µM | OVCAR-8 > 100 µM | PC-3 > 100 µM | SN12C > 100 µM | TK-10 > 100 µM | UACC-257 > 100 µM | UACC-62 > 100 µM

O=c1c2c([N+](=O)[O-])cccc2nc2[nH]c3ccccc3n12
inactive: ACHN 13.9 µM | BT-549 20.5 µM | COLO 205 40.7 µM | DU-145 34 µM | Hs-578T 26.5 µM | M14 > 75 µM | MCF7 20.4 µM | MDA-MB-231 14.7 µM | Malme-3M 46 µM | NCI-H23 32.9 µM | NCI-H460 20.9 µM | NCI/ADR-RES 26.4 µM | OVCAR-3 20.7 µM | OVCAR-8 14.5 µM | PC-3 57.8 µM | SN12C 25.6 µM | TK-10 18.7 µM | UACC-257 > 75 µM | UACC-62 19.5 µM

Nc1c(F)c(F)c2c(c1F)N(CCCCCl)c1ccccc1S2
inactive: ACHN > 100 µM | BT-549 > 100 µM | COLO 205 > 100 µM | DU-145 > 100 µM | Hs-578T > 100 µM | M14 > 100 µM | MCF7 > 100 µM | MDA-MB-231 > 100 µM | Malme-3M > 100 µM | NCI-H23 > 100 µM | NCI-H460 > 100 µM | NCI/ADR-RES > 100 µM | OVCAR-3 > 100 µM | PC-3 > 100 µM | SN12C > 100 µM | TK-10 > 100 µM | UACC-257 > 100 µM | UACC-62 > 100 µM

Cn1cc(NC(=O)Nc2cc(C(=O)Nc3cc(C(=O)Nc4ccc(S(=O)(=O)O)c5cc(S(=O)(=O)O)ccc45)n(C)c3)n(C)c2)cc1C(=O)Nc1cc(C(=O)Nc2ccc(S(=O)(=O)O)c3cc(S(=O)(=O)O)ccc23)n(C)c1
inactive: ACHN > 100 µM | BT-549 > 100 µM | COLO 205 > 100 µM | DU-145 > 100 µM | Hs-578T > 100 µM | M14 > 100 µM | MCF7 > 100 µM | MDA-MB-231 > 100 µM | Malme-3M > 100 µM | NCI-H23 > 100 µM | NCI-H460 > 100 µM | NCI/ADR-RES > 100 µM | OVCAR-3 > 100 µM | OVCAR-8 > 100 µM | PC-3 > 100 µM | SN12C > 100 µM | TK-10 83.8 µM | UACC-257 > 100 µM | UACC-62 > 100 µM

Cc1onc(-c2c(F)cccc2Cl)c1C(=O)N[C@@H]1C(=O)N2[C@@H]1SC(C)(C)[C@@H]2C(=O)O
inactive: ACHN > 100 µM | BT-549 > 100 µM | COLO 205 > 100 µM | DU-145 > 100 µM | Hs-578T 44 µM | M14 > 100 µM | MCF7 > 100 µM | MDA-MB-231 > 100 µM | Malme-3M > 100 µM | NCI-H23 > 100 µM | NCI-H460 > 100 µM | NCI/ADR-RES > 100 µM | OVCAR-3 > 100 µM | OVCAR-8 > 100 µM | PC-3 > 100 µM | SN12C > 100 µM | TK-10 > 100 µM | UACC-257 > 100 µM | UACC-62 > 100 µM

CN1CC2CC(C1)c1cccc(=O)n1C2 (stereo unspecified)
inactive: ACHN > 100 µM | BT-549 > 100 µM | COLO 205 > 100 µM | DU-145 > 100 µM | Hs-578T > 100 µM | M14 > 100 µM | MCF7 > 100 µM | MDA-MB-231 > 100 µM | Malme-3M > 100 µM | NCI-H23 > 100 µM | NCI-H460 > 100 µM | NCI/ADR-RES > 100 µM | OVCAR-3 > 100 µM | OVCAR-8 > 100 µM | PC-3 > 100 µM | SN12C > 100 µM | TK-10 > 100 µM | UACC-257 > 100 µM | UACC-62 > 100 µM

Cc1cn([C@H]2C=C[C@@H](CO)O2)c(=O)[nH]c1=O [STAVUDINE]
inactive: ACHN > 1000 µM | BT-549 327 µM | COLO 205 410 µM | DU-145 > 1000 µM | Hs-578T > 1000 µM | M14 > 1000 µM | MCF7 617 µM | MDA-MB-231 > 1000 µM | Malme-3M 361 µM | NCI-H23 776 µM | NCI/ADR-RES 678 µM | OVCAR-3 > 1000 µM | OVCAR-8 > 1000 µM | PC-3 > 1000 µM | SN12C > 1000 µM | TK-10 583 µM | UACC-257 > 1000 µM | UACC-62 902 µM
